Experimental data: the NIST ThermoML archive (doi:10.1016/j.jct.2008.01.014)
± gives the expanded uncertainty stated by the source.

Details: Liquid, Ebulliometric method (Recirculating still)

SMILES	vapor or sublimation pressure (273.15 K)	vapor or sublimation pressure (288.15 K)	vapor or sublimation pressure (303.15 K)	vapor or sublimation pressure (318.15 K)	vapor or sublimation pressure (333.15 K)	vapor or sublimation pressure (348.15 K)
CC(F)(F)F [1,1,1-trifluoroethane]	626 ± 3 kPa	972 ± 4 kPa	1442 ± 6 kPa	2063 ± 9 kPa	2875 ± 12 kPa	
C=C(C)C [2-methylpropene]	133 ± 2 kPa	224 ± 2 kPa	353 ± 2 kPa	538 ± 3 kPa	787 ± 4 kPa	1110 ± 5 kPa
